≈ marks a conversion by molar mass, not a printed value. Structures can show the parent of a compound that is named as a salt.
Tests used:
physchem = conditions: for solubility: aqueous buffer
Description: The active agent may be any active agent suitable to treat the desired condition. […] Examples include, but are not limited to, acetazolamide, dorzolamide HCl, timolol maleate, and ethacrynic acid sodium salt.

[1] = topical ocular use; cited from earlier work

Compound	solubility class (physchem)	solubility (physchem)	also measured
O=C(O)CCCCCC[C@@H]1[C@@H](CC[C@@H](O)c2cc3ccccc3s2)[C@H](O)C[C@@H]1O [AR-102 free acid, 7-((1R,2R,3R,5S)-2-((R)-3-(benzo[b]thiophen-2-yl)-3-hydroxypropyl)-3,5-dihydroxycyclopentyl)heptanoic acid]	moderate solubility		
C[C@@H](N)c1ccc(C(=O)Nc2ccnc3[nH]ccc23)cc1 [Y-39983 Free Base]	Moderately Soluble		
CC(=O)Nc1nnc(S(N)(=O)=O)s1 [acetazolamide]		> 1000 µg/mL	
CCNC(=O)CCC/C=C\C[C@@H]1[C@@H](/C=C/[C@@H](O)CCc2ccccc2)[C@H](O)C[C@@H]1O [bimatoprost]	low solubility		
Brc1c(NC2=NCCN2)ccc2nccnc12 [brimonidine free base]			solubility in PBS (physchem): 360 µg/mL (≈ 1230 µM)
C[C@@H]1C[C@H]2[C@@H]3CCC4=CC(=O)C=C[C@]4(C)[C@@]3(F)[C@@H](O)C[C@]2(C)[C@@]1(O)C(=O)COP(=O)(O)O [dexamethasone sodium phosphate]	high solubility		
C[C@@H]1C[C@H]2[C@@H]3CCC4=CC(=O)C=C[C@]4(C)[C@@]3(F)[C@@H](O)C[C@]2(C)[C@@]1(O)C(=O)CO [dexamethasone]	low solubility	< 300 µg/mL	
CCN[C@H]1C[C@H](C)S(=O)(=O)c2sc(S(N)(=O)=O)cc21 [dorzolamide HCl]	high solubility	> 1000 µg/mL	
C=C(CC)C(=O)c1ccc(OCC(=O)O)c(Cl)c1Cl [ethacrynic acid sodium salt]	high solubility	> 1000 µg/mL	
O=C(O)CCC/C=C\C[C@@H]1[C@@H](CC[C@@H](O)CCc2ccccc2)[C@H](O)C[C@@H]1O [latanoprost free acid]			solubility in PBS (physchem): 800 µg/mL (≈ 2050 µM)
CC(C)OC(=O)CCC/C=C\C[C@@H]1[C@@H](CC[C@@H](O)CCc2ccccc2)[C@H](O)C[C@@H]1O [latanoprost isopropyl ester]	low solubility	< 300 µg/mL	topical effective concentration [1]: 0.05 milligrams/mL
CC[C@H](C)C(=O)O[C@H]1C[C@@H](C)C=C2C=C[C@H](C)[C@H](CC[C@@H]3C[C@@H](O)CC(=O)O3)[C@H]21 [lovastatin]		< 300 µg/mL	
CC(C)(C)NC[C@H](O)COc1nsnc1N1CCOCC1 [timolol maleate]	high solubility	> 1000 µg/mL	
CC(C)OC(=O)CCC/C=C\C[C@@H]1[C@@H](/C=C/[C@@H](O)COc2cccc(C(F)(F)F)c2)[C@H](O)C[C@@H]1O [travoprost isopropyl ester]	low solubility	< 300 µg/mL	
brimonidine tartrate			solubility class (physchem; PBS at pH=7.2-7.4, listed as brimonidine D-tartrate salt): high solubility; solubility in water (physchem; in water at pH 7.7): 600 µg/mL
